Data published in US20160193316A1 (priority 1994, published 2016).
Read-outs that look alike come from different tables or passages of the source. No end group written: not given here.

How the values were obtained:
T helper lymphocytes = conditions: regardless of HLA type, WO 95/07707; cited from earlier work
HLA-A*0301 = molecular target: T1, HLA-A*0301 (Homo sapiens, UniProt P04439); assay: HLA class I peptide binding assay; conditions: Malaria A3 motif peptides, Table XVI; binding value to HLA-A*0301, unit not given
T1 construct: endogenous in cells; host or cells: GM3107

HLA-A*0101 = HLA-A*0101 (Homo sapiens, UniProt P04439, A114D/A174V/A182V/D101N/D185E/E176A/E190D/L180R/Q94H/R68K/S129P/T187R/V100A/V91M/W191G); assay type: binding
HLA-A*1101 = HLA-A*1101 (Homo sapiens, UniProt P04439, A114D/D185E/E176A/F33Y/L180Q/S129P/T187R); assay: HLA class I peptide binding assay
DRB1*0301 (DR3) = molecular target: T2, DRB1*0301 (DR3) (Homo sapiens, UniProt P01903+P01911, A100K/A102G/A103R/A169T/F55Y/I96L/K41T/L162R/M171V/P40S/Q125H/Q178H/Q39Y/R42S/S66N/T106N/T262R/W38E/Y61H); assay: HLA class II peptide binding assay (pH 4.5); conditions: DR3a motif peptides; unit not given; exemplary 15-mer containing the core sequence
T2 construct: endogenous in cells; host or cells: MAT

HLA-B*0702 = molecular target: T3, HLA-B*0702 (Homo sapiens, UniProt P01889); assay: HLA class I peptide binding assay; conditions: Malaria B07 super motif peptides; binding value, no unit
T3 construct: endogenous in cells; host or cells: GM3107

[1] = tested on: HLA-A3-supertype molecules (A3, A11, A*3101, A*3301, A*6801); assay type: binding, human
HLA-A*3101 = HLA-A*3101 (Homo sapiens, UniProt P04439, A270S/D185E/E176V/E277Q/F33T/G231S/G80R/H175R/I121M/I218V/I322F/K168Q/L300P/L318F/M331R/P217A/Q94H/R138Q/T323A/T345S/T97I/V358M); assay: HLA class I peptide binding assay
HLA-A*3301 = HLA-A*3301 (Homo sapiens, UniProt P04439, A270S/D185E/E176V/E277Q/E87N/F33T/G231S/H175R/I121M/I218V/I322F/K168Q/K210R/L300P/L318F/M331R/P217A/Q86R/Q94H/R138Q/T323A/T345S/T97I/V358M/Y195H); assay: HLA class I peptide binding assay

In the case of aKXVWANTLKAAa, the “Stimulation of T helper lymphocyte response” value (T helper lymphocytes) is given as “stimulate the response of T helper lymphocytes from most individuals”.

With PSDGKCNLY the “A*0301 (binding information)” value (HLA-A*0301) was 0.0002, the “A*010I” value (HLA-A*0101) was 0.5400 and the “A*0101 (binding information)” value (HLA-A*0101) was 0.5400. The “A*1101 binding information” value (HLA-A*1101; Table XVII, malaria A11 motif peptides, binding value unit not given) was 0.0002.

With LPSENERGY the DR3 binding information (DRB1*0301 (DR3)) was -0.0033, the “A*0101 (binding information)” value (HLA-A*0101) was 0.6700 and the “B*0702 (binding information)” value (HLA-B*0702) was 0,0001.

In the case of FILVNLLIFH [Peptide 1167.46], the Alleles bound ([1]; A3-supermotif CTL epitopes, five A3-supertype alleles (Table XXVII)) is reported as 2, the Alleles bound ([1]; A3-supertype peptides tested for binding to A*03, A*11, A*31011, A*3301, A*6801) is reported as 2 and the Alleles bound ([1]; A3-supertype, tested on A*03, A*11, A*31011, A*3301, A*6801, unfixed parent peptide) is reported as 2. The IC50 (HLA-A*3101) was 1960 nM, the IC50 (HLA-A*3301) was 397 nM and the IC50 (HLA-A*1101) was 1330 nM.

For HPSDGKCNLY, the “A*0101 (binding information)” value (HLA-A*0101) was 0.0260 and the “B*0702 (binding information)” value (HLA-B*0702) was 0.0001.

For FQDEENIGIY, the “A*0101 (binding information)” value (HLA-A*0101) was 1.1000.
